Data published in patent publication US12186294B2, “Modulators of prostate-specific g-protein receptor (PSGR/OR51E2) and methods of using same” (Duke University, priority 2016, dated 2025).
pEC50, pIC50: −log10 of the molar value. Square brackets hold non-standard residues; d marks the D form. Peptide text beside a SMILES is read from it.

Tests used:
[1] = biological target: T1, OR51E2 (Homo sapiens, UniProt Q9H255); assay: in vitro luciferase assay (CRE-Luc) in Hana3A cells transfected with OR51E2; type: cell-based; conditions: for pEC50: OR51E2 agonist, Hana3A cells, luciferase, read-out: EC50 (potency); for Efficacy: compared to the 1 mM PA response
T1 construct: expressed in transfected cells; host or cells: Hana3A cells (modified human embryonic kidney cells)
T1 sequence (Q9H255 1-320): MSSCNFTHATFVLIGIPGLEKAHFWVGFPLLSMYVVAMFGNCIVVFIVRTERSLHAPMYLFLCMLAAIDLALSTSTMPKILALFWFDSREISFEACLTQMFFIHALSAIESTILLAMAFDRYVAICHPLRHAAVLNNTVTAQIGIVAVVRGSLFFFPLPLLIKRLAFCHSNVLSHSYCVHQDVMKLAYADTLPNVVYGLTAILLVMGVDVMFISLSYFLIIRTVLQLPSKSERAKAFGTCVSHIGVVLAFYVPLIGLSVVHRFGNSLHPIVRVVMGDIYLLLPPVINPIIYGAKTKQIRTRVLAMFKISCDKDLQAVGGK
Procedure: Hana3A cells (modified human embryonic kidney cells) were cultured in 96 well plates in M10PSF medium. LNCaP human prostate cancer cells were cultured in both RPMI medium and androgen deprived RPMI medium. Hana3A cells were transfected with CRE-Luc (CREB-dependent luciferase (Firefly)) and SV40-RL promoter plasmids, and pCI and OR51E2 plasmids. […] Upon ligand binding, an increase in cAMP drives the expression of Firefly luciferase. Increase in luminescence signal was measured with a luminometer and Optima Data Analysis software. The luminescent signal is directly proportional to receptor activation. A general schematic of a luciferase assay is shown in FIG. 5 and a schematic of the assay used in this Example is shown in FIG. 6.
The top 56 compounds from the VLS list were tested using the in vitro expression and luciferase assay. […] The biologically relevant concentrations of each metabolite were individually determined based on available data in the literature. If no data were available, compounds were tested in the range of 1 nM-100 μM. Responses were normalized to the response with 1 mM propionic acid (PA), a previously identified agonist, and also to a response with no-control.

[2] = test system: LNCaP cells; assay: RT-PCR assay of NED marker and OR51E2 transcript levels in LNCaP cells; type: cell-based, human
Procedure: To assess the differentiation status of LNCaP cells following treatment with an OR51E2 ligand, cells were exposed to the ligands for three days. Biological markers of NED were analyzed using an RT-PCR assay. The following markers were tested: neuron specific enolase (NSE) and α-methylacyl-CoA racemase (AMACR), an enzyme essential for isomerization of branched-chained fatty acids that is present at low levels in healthy prostate cells and increased in PCa and in NE-like cells. Furthermore, changes in the expression levels of OR51E2 and androgen receptor (AR) were determined. This experiment will also be conducted using RWPE-2 cells.
For example, 19-OH AD agonist treatment of LNCaP cells increased OR51E2 transcript levels. […] Further studies using siRNA gene knockdown assays, will determine whether activated/overexpressed OR51E2 is involved in NEtD.

[3] = test system: LNCaP cells; assay: cell viability/proliferation assay of LNCaP cells (CellTiter-Glo); type: cell-based, human; conditions: 10 uM, 7 day incubation, vs untreated control
Procedure: The NEtD status was assessed through analysis of viability and proliferation of LNCap cells using use CellTiter-Glo Luminescent cell viability assay (Promega). […] Viability and proliferation assays will also be conducted with OR51E2 ligands in RWPE-2 cells.
Furthermore, a cell viability/proliferation assay of prostate cancer LNCaP cells was performed using 13-cis RA during a 7 day incubation period.

[4] = test system: LNCaP cells; conditions: cited from earlier work
[5] = test system: LNCaP cells; assay: untargeted GC/MS metabolomics signatures of LNCaP cells treated with OR51E2 ligand; type: cell-based, human; conditions: 72 hours, 100 nM 19-OH AD, 250 μM AFMK, 1 mM PA
Procedure: Metabolomics signatures were assessed using untargeted gas chromatography/mass spectrometry (GC/MS) to analyze LNCaP cells treated with an OR51E2 ligand for 3 days. There were six biological replicates for each treatment and the results were analyzed using MetaboAnalyst software. The same analysis will also be conducted using RWPE-2 cells.
GC/MS analysis detected greater than 250 features, and 115 of them were annotated. In FIG. 24A-24F, the top 15 metabolites are presented showing the most significant differences in cells treated with agonists when compared to control cells.

[6] = 12 days incubation with agonist, vs control

Compound	pEC50 [1]	Efficacy [1]	other results
O=C1CCCN1 [2-Pyrrolidinone]	8.72	0.525	–
CC1=C(/C=C/C(C)=C/C=C/C(C)=C\C(=O)O)C(C)(C)CCC1 [13-cis RA, 13-cis retinoic acid]	–	–	OR51E2 transcript levels ([2]; 10 μM, 3 days, vs control cells): significantly decreased; LNCaP growth [3]: effectively impeded; LNCaP cell growth and tumorigenic potential ([4]; Dahiya et al. (1994)): inhibits cell growth and decreases tumorigenic potential; pIC50 ([1]; responses normalized to 1 mM PA, read-out: IC50 (OR51E2 antagonist)): 6.80
C[C@]12CC[C@H]3[C@@H](CCC4=CC(=O)CC[C@@]43CO)[C@@H]1CCC2=O [19-OH AD, 19-hydroxyandrost-4-ene-3,17-dione]	9.82	0.890	metabolite differences relative to controls (GC/MS) [5]: significant differences relative to controls; OR51E2 transcript levels [2, 6]: increased
COc1ccc(NC=O)c(C(=O)CCNC(C)=O)c1 [AFMK, N-acetyl-N-formyl-5-metoxykynurenamine]	4.92	1.483	metabolite differences relative to controls (GC/MS) [5]: significant differences relative to controls
Nc1ncnc2c1ncn2C1OC(CO)C2OP(=O)(O)OC21 (stereo not drawn) [Adenosine 2′,3′-cyclic phosphate]	7.59	1.025	–
C[C@]12CCC(=O)CC1CC[C@@H]1[C@@H]2CC[C@]2(C)C(=O)CC[C@@H]12 (stereo partly drawn) [Androstanedione]	9.10	0.888	–
C[C@@H](N)C(=O)N[C@H](C)C(=O)O [D-Alanyl-d-alanine] (H-[dA]-[dA]-OH)	4.85	–	–
C[C@]12CC[C@H]3[C@@H](CCC4=CC(=O)CC[C@@]43C)[C@@H]1CC[C@H]2O [Epitestosterone]	9.16	0.477	–
C[C@]12CC[C@@H]3c4ccc(O)cc4CC[C@H]3[C@@H]1C[C@@H](O)[C@@H]2O [Estriol]	4.28	–	–
Cc1c(O)cc2c(c1C)OC(C)(CCC(=O)O)CC2 (stereo not drawn) [Gamma-CEHC]	8.19	1.286	–
NCC(=O)O [Glycine]	–	0.613	–
NCC(=O)NCC(=O)O [Glycylglycine] (H-Gly-Gly-OH)	4.96	–	–
O=C(O)C(=O)CO [Hydroxypyruvic acid]	6.38	1.100	–
OC[C@H]1O[C@H](O[C@H]2C(O)O[C@H](CO)[C@@H](O)[C@@H]2O)[C@H](O)[C@@H](O)[C@@H]1O (stereo partly drawn) [Kojibiose]	6.00	0.790	–
O=C(O)[C@@H](O)CO [L-Glyceric acid]	8.72	–	–
CC(=O)N[C@@H](CCC(=O)O)C(=O)O [N-Acetylglutamic acid]	9.64	–	–
CCC(=O)O [PA, propionic acid]	–	–	metabolite differences relative to controls (GC/MS) [5]: significant differences relative to controls; AMACR transcript levels [2, 6]: increased; NSE transcript levels [2, 6]: increased
CCCCCCCCCCCCCCCC(=O)O [Palmitic acid]	8.01	0.927	–
NC(N)=O [Urea]	7.64	0.580	–
CC(=O)/C=C/C1=C(C)CCCC1(C)C [beta ionone, beta-ionone]	–	–	proliferation of LNCaP cells ([4]; Neuhaus et al. (2009), OR51E2/PSGR activation): decreased
